This passage reports IC50, Urinary glucose and melting point results from US7935674B2, “Indole derivatives” (Mitsubishi Tanabe Pharma Corporation, priority 2005, dated 2011).

One data set concerns the target T1, human SGLT2 (Homo sapiens, UniProt P31639).
T1 construct: expressed in transfected cells; host or cells: CHOK1 (Chinese hamster ovary) cells, kept under Geneticin selection
T1 sequence (P31639 1-672): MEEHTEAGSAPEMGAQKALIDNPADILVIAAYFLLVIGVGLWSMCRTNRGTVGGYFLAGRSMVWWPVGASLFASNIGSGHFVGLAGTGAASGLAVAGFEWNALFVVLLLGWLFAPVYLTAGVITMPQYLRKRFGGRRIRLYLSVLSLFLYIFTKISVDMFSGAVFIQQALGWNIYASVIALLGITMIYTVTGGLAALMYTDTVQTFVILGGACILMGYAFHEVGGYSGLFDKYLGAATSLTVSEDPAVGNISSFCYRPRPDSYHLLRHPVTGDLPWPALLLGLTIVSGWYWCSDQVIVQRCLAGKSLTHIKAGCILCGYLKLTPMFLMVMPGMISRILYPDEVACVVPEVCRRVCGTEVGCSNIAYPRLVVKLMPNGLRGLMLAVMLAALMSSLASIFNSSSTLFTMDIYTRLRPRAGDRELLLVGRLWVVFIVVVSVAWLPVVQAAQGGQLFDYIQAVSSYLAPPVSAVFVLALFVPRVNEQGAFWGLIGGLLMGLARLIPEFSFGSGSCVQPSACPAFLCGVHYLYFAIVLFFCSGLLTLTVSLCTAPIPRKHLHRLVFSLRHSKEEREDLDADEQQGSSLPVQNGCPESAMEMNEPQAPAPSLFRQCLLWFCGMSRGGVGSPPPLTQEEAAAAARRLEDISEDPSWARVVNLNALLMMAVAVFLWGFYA
The data set can be described thus: Assay for SGLT2 inhibition (14C-AMG uptake in CHOK1 cells expressing human SGLT2). The class given is cell-based. As for the experimental part: 1. Assay for SGLT2 Inhibition
Compounds described in the above examples were used for the SGLT2 inhibition assay.
CHOK1 cells expressing human SGLT2 were seeded in 24-well plates at a density of 400,000 cells/well in F-12 nutrient mixture (Ham's F-12) containing 10% fetal bovine serum, 400 μg/ml Geneticin, 50 units/ml sodium penicillin G (Gibco-BRL) and 50 μg/ml streptomycin sulfate. After 2 days of culture at 37° C. in a humidified atmosphere containing 5% CO2, cells were washed once with the assay buffer (137 mM NaCl, 5 mM KCl, 1 mM CaCl2, 1 mM MgCl2, 50 mM Hepes, and 20 mM Tris, pH 7.4) and incubated with 250 μl of the buffer containing test compounds for 10 min at 37° C. Test compounds were dissolved in DMSO. The final concentration of DMSO was 0.5%. The transport reaction was initiated by addition of 50 μl [^14C]-methyl-α-D-glucopyranoside (^14C-AMG) solution (final concentration, 0.5 mM). After incubation for 2 hours at 37° C., the uptake was stopped by aspiration of the incubation mixture, the cells were washed three times with ice-cold PBS. Then, cells were solubilized with 0.3 N NaOH and aliquots were taken for determination of radioactivity by a liquid scintillation counter. Nonspecific AMG uptake was defined as that which occurred in the presence of 100 μM of phlorizin, a specific inhibitor of sodium-dependent glucose cotransporter. Specific uptake was normalized for the protein concentrations measured by the method of Bradford. The 50% inhibitory concentration (IC50) values were calculated from dose-response curves by least square method.

In another data set the test system is Sprague-Dawley (SD) rats. The data set can be described thus: Urinary glucose excretion test in rats. The class given is in vivo, rat. Conditions: male SD rats; 30 mg/kg by oral gavage; urine collected for 24 hours; daily amount of glucose excreted in urine per individual. As to the method:
2. Urinary Glucose Excretion Test in Rats Test Compounds:
Compounds described in the above examples were used for the Urinary glucose excretion test in rats.
6-week-old male Sprague-Dawley (SD) rats were housed in individual metabolic cages with free access to food and water from 2 days prior to the experiment. On the morning of the experiment, rats were administered vehicle (0.2% carboxymethyl cellulose solution containing 0.2% Tween80) or test compounds (30 mg/kg) by oral gavage at a volume of 10 ml/kg. Then, urine of the rat was collected for 24 hours, and the urine volume was measured. Subsequently, the glucose concentration in urine was quantified using the enzymatic assay kit and the daily amount of glucose excreted in urine per individual was calculated.

Setting [1] is: CHOK1 cells expressing human SGLT2, 14C-AMG uptake, 0.5 mM, 2 hours at 37° C., read-out: IC50.

Where two headings read alike, the source gives them in different places.

On to `OC[C@H]1O[C@@H](n2cc(Cc3ccc4occc4c3)c3c(Br)cccc32)[C@H](O)[C@@H](O)[C@@H]1O` [Example 43, 3-(Benzo[b]furan-5-yl-methyl)-4-bromo-1-(β-D-glucopyranosyl)-indole], for which the IC50 (as a rule, the midpoint of a concentration-inhibition curve) on human SGLT2 (setting [1]) was 8.4 nM. Also, in the data set on Sprague-Dawley (SD) rats, the Urinary glucose entry is “A (A≧2400 mg)”.
As for `OC[C@H]1O[C@@H](n2cc(Cc3ccc(Cl)cc3)c3c(Br)cccc32)[C@H](O)[C@@H](O)[C@@H]1O` [Example 44, 4-Bromo-3-(4-chlorophenylmethyl)-1-(β-D-glucopyranosyl)indole], the IC50 at human SGLT2 (setting [1]) worked out at 20 nM. In the data set with Sprague-Dawley (SD) rats, the Urinary glucose entry is “B (2400 mg>B≧2000 mg)”.
Turning to `OC[C@H]1O[C@@H](n2cc(Cc3ccc(O)cc3)c3c(Cl)cccc32)[C@H](O)[C@@H](O)[C@@H]1O` [Example 46, 4-Chloro-3-(4-hydroxyphenylmethyl)-1-(β-D-glucopyranosyl)-indole], at human SGLT2 (setting [1]), the IC50 came out at 2.4 nM. Further, in the data set on Sprague-Dawley (SD) rats, the Urinary glucose result is “A (A≧2400 mg)”.
`Cc1cccc2c1c(Cc1ccc(C3CC3)cc1)cn2[C@@H]1O[C@H](CO)[C@@H](O)[C@H](O)[C@H]1O` [Example 47, 3-(4-Cyclopropylphenylmethyl)-4-methyl-1-(β-D-gluco-pyranosyl)indole] returned an IC50 against human SGLT2 of 1.6 nM. Moreover, the Urinary glucose entry in the data set with Sprague-Dawley (SD) rats is “A (A≧2400 mg)”.
`Cc1cccc2c1c(Cc1ccc(-c3ccccn3)s1)cn2[C@@H]1O[C@H](CO)[C@@H](O)[C@H](O)[C@H]1O` [Example 52, 4-Methyl-3-(5-(2-pyridyl)thiophen-2-yl-methyl)-1-(β-D-gluco-pyranosyl)indole]: the melting point (usually the temperature of the solid-liquid transition) lay in the range of 195 to 200 °C. For the same molecule, the IC50 at human SGLT2 (setting [1]) was found to be 2.8 nM.
